# Assay results: patent publication US20180344715A1, “WNT/BETA-CATENIN SIGNAL TRANSDUCTION INHIBITORS AND THEIR USE IN TREATMENT OR PREVENTION OF DISEASES AND CONDITIONS LINKED WITH SAID TRANSDUCTION” (BERGEN TEKNOLOGIOVERFORING AS, priority 2015, published 2018)
# Key:
# MED23 = target: T1, MED23 (Homo sapiens, UniProt Q9ULK4); assay: Chromatin immunoprecipitation (ChIP) of MED23 at Wnt target genes; assay type: cell-based; conditions: SW480, 5 μM overnight
# T1 construct: endogenous in cells; host or cells: SW480
# T1 sequence (Q9ULK4 1-1368): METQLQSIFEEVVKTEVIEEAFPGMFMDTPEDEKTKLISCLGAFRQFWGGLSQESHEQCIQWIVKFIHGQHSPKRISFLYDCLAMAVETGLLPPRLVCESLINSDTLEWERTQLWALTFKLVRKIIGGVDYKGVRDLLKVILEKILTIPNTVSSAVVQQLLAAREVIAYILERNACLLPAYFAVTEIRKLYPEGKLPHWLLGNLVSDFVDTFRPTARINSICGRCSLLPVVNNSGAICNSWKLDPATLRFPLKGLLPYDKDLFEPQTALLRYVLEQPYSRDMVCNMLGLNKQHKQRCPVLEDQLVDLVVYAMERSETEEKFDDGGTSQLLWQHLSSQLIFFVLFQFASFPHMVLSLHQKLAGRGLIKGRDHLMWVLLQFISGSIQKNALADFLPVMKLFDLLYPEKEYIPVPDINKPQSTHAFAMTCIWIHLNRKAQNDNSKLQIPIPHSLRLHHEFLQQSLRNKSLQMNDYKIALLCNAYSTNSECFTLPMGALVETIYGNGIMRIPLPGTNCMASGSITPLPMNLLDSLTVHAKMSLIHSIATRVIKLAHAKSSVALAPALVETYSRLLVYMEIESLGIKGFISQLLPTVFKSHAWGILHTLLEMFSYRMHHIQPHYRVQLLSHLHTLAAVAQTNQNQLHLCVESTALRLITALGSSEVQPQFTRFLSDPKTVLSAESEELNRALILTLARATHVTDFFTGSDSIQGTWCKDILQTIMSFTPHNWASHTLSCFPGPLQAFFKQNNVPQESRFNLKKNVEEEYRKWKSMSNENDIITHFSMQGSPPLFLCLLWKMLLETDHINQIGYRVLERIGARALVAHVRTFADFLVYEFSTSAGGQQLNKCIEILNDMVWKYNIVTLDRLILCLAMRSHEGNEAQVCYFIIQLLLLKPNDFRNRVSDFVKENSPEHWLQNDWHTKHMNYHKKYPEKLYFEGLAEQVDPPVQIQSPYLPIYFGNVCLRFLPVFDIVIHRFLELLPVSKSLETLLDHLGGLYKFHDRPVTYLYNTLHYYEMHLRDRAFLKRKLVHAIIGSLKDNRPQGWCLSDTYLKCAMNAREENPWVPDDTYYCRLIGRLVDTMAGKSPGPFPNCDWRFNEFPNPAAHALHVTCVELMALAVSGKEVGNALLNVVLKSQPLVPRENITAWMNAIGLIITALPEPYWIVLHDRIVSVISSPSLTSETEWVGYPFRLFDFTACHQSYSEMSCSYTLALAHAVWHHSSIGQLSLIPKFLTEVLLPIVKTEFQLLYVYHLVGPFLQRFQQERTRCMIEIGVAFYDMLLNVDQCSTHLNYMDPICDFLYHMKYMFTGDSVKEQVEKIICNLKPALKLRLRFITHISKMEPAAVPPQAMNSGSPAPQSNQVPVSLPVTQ
# Experimental: ChIP was performed according to the protocol previously described with a few modifications on the crosslinking procedures (Ke, X. S. et al., 2009, PLoS One 4, e4687). […] The reaction was quenched with 1/50 volume of 2.5 M glycine. Cells were lysed and the nuclei were sonicated to fragments ranging from 200 bp to 500 bp. After saving 0.2% total chromatin for input DNA purification, sonicated lysates were equally divided to three tubes and immunoprecipitated with Protein G beads (Life technologies, 10004D) coupled with 5 μg mouse IgG (15381, Sigma), antibody against MED23(BD550429, clone D27-1805, BD Biosciences) and β-catenin (ab22656, clone 12F7, Abcam), respectively. The immunoprecipitated DNA was purified and examined by PCR described below.
# To determine the purified DNA from ChIP samples, quantitative PCR was performed with RT^2 SYBR Green/ROX PCR Master Mix and the PCR reactions were examined by 2% agarose gel electrophoresis. PCR primers were designed to cover the canonical TCF/β-catenin binding motifs of 6 randomly chosen β-catenin target genes (shown in FIG. 4c). The sequences and genomic locations (NCBI36/hg18) of PCR primers are listed below. GAPDH was used as a negative control.
# Wnt target genes = assay: RT-PCR of Wnt target genes in 293FT cells; assay type: cell-based, human; conditions: 24 hours
# Source text: Reverse transcription (RT) and real-time quantitative PCR (qPCR) were done as previously described (Ke, X. S. et al., 2011, Exp Cell Res 317, 234-247). For qPCR using TagMan Universal PCR Master Mix (Life technologies, 4304437), TagMan assays used for human AXIN2 (Hs00610344_m1), LEF1 (Hs01547250_m1), BMP4 (Hs03676628_s1), CTNNB1 (Hs01076483_m1), VEGFR1 (Hs01052961_m1), MED23 (Hs00606608_m1), SHPRH (Hs00542737_m1) and ACTB1 (Hs99999903_m1) were obtained from Life technologies. For RT-PCR using RT^2 SYBR Green/ROX PCR Master Mix (QIAGEN, 330520), primer oligos were made by Eurogentec (Liege, Belgium).
# [1] = tested on: Apc (VilCre^ER Apc^fl/fl) intestinal organoids; assay: Apc mutant intestinal organoid culture; assay type: cell-based, mouse; conditions: 7 days
# Source text: Mouse intestinal Apc (VilCre^ER Apc^fl/fl) organoids were obtained from Owen J. Sansom's laboratory at the Beatson Institute for Cancer Research, Glasgow, UK. The culture protocol has been described previously (14). Briefly, Apc mutant organoids were suspended in Growth Factor Reduced Matrigel (catalog no. 356231; Corning) and cultured in Advanced DMEM/F12 (catalog no. 12634-028; Invitrogen) containing 1% B-27 supplement (50×), minus vitamin A (catalog no. 12587-010; Invitrogen) and 0.1% BSA. Organoids were seeded in 24-well plates at a density of 70-100 organoids/50 μL Matrigel in each well. […] One week later organoids were imaged using the Cytation 5 Cell Imaging Multi-Mode Reader (BioTek Instruments, Inc.).
# MED23 and β-catenin = target: T2, MED23 and β-catenin (Homo sapiens, UniProt Q9ULK4); assay: Co-immunoprecipitation of MED23 and β-catenin; assay type: cell-based; conditions: SW480, 5 μM, 4 hours
# T2 construct: endogenous in cells; host or cells: SW480
# T2 sequence (Q9ULK4 1-1368): T1 sequence (Q9ULK4 1-1368)
# Experimental: Co-IP was done following the protocol of Dynabeads Co-Immunoprecipitation Kit (Life Technologies, 14321D). […] After saving 2% samples for input control, cell lysates were equally divided between 3 tubes, incubated with 3 mg Dynabeads and 21 μg mouse IgG (15381, Sigma), primary antibody against MED23 (BD550429, clone D27-1805, BD Biosciences) and β-catenin (ab22656, clone 12F7, Abcam), respectively. Input controls and proteins pulled down with individual antibodies were examined by Western blotting.
smiles,measurement,setting,value
"CNC(=O)c1ccccc1Sc1ccc2c(/C=C/c3ccccn3)n[nH]c2c1 [axitinib, N-Methyl-2-[[3-[(E)-2-pyridin-2-ylethenyl]-1H-indazol-6-yl]sulfanyl]benzamide]",MED23 occupancy at TCF/LEF-binding motifs of Wnt target genes,MED23,reduced
same,mRNA levels of Wnt target genes,Wnt target genes,decreases
same,growth of Apc-deleted murine organoids,[1],strongly inhibited
same,endogenous association of MED23 and β-catenin,MED23 and β-catenin,disrupted
